“Also recorded” adds a separate entry of the source.
Key:
SCD mice = assay: qFILM assessment of pulmonary vaso-occlusion in SCD mice IV administered oxy-Hb; format: in vivo, mouse; details: LDC7559 10 mg/kg, Z-VAD-FMK 0.004 μmol/kg
Text: Quantitative fluorescence intravital lung microscopy (qFILM) was used to assess the absence or presence of platelet-neutrophil aggregate mediated pulmonary vaso-occlusion. Pulmonary microcirculation (pseudo-colored purple), neutrophils (red) and platelets (pseudo-colored green) were labeled in vivo by IV administration of FITC dextran, AF546-anti-Ly6G Ab and V450-anti-CD49b Ab, respectively. […] White arrows denote the direction of blood flow within the pulmonary arterioles. Alveoli are marked with asterisks. Scale bars 20 μm. The diameter of pulmonary arteriole in B-E is ˜22 μm, 32 μm, 31.5 μm, and 31 μm, respectively. […] Refer Online Data Supplement for details. […] The data for mice with SCD IV administered 10 oxy-Hb (n=5 mice; 75 FOVs) are included as black bars in FIGS. 1N and 1O for relative comparison. qFILM FOV size ˜65 536 μm^2. Data represent mean ±SE and are compared using Student t test. *P<0.05 (FIG. 1P) Schematic showing the main findings of the study. The sterile inflammatory milieu (DAMPs, IFN-I signaling, and ROS) in SCD promotes caspase-4 (humans) or caspase-11 (mouse)-dependent cleavage of neutrophil GSDMD into the active form GSDMD-NT, leading to the shedding of NETs in the liver microcirculation. Once shed, these NETs are carried by the blood as cNETs to the lung, where they promote neutrophil-platelet aggregation in the pulmonary arterioles, leading to PVO and lung injury (acute chest syndrome).
Intravital lung microscopy (experimental scheme shown in FIG. 1A) was conducted in live mice to assess whether preventing liver-to-lung embolization of cNETs by inhibiting or deleting GSDMD-signaling leads to amelioration of pulmonary vaso-occlusion. Although large neutrophil-platelet aggregates (marked with dotted ellipses) were seen occluding the arteriolar bottle-necks, leading to impaired blood flow in the lung of SCD mice IV administered 10 μmole/kg oxy-Hb (FIG. 1B), such aggregates were rare in the lung of SCD mice IV administered 10 μmole/kg oxy-Hb with 0.004 μmol/kg pan-caspase inhibitor Z-VAD-FMK (FIG. 1C) or 10 mg/kg GSDMD-NT inhibitor LDC7559 (FIG. 1D) or 20 mg/kg GSDMD-NT inhibitor Necrosulfonamide (FIG. 1E). […] The twofold higher dose of 20 μmole/kg IV oxy-Hb also led to the development of lung vaso-occlusion in WT but not Gsdmd^−/− mice (FIG. 2). […] P-selectin deficiency led to an approximately 50% reduction in pulmonary vaso-occlusion in SCD-Selp^−/− mice administered 10 μmole/kg IV oxy-Hb (FIG. 3), however, IV administration of oxy-Hb with GSDMD-NT inhibitor (LDC7559) led to further threefold (significant) reduction in pulmonary vaso-occlusions per FOV (FIGS. 1N and 4A, and FIG. 5) and absence of large pulmonary vaso-occlusions (area>1000 μm^2) per FOV (FIG. 10) in SCD-Selp^−/− mice.
Quantitative fluorescence intravital lung microscopy (qFILM) has been used widely for in vivo assessment of pulmonary vasoocclusion in mice with SCD [Bennewitz M F et al., (2017); Vats R, Brzoska T, Bennewitz M F, et al. (2020); Vats R, Tutuncuoglu E, Pradhan-Sundd T, Tejero J, Shaw G D, Sundd P. (2020); Bennewitz M F, Tutuncuoglu E, Gudapati S, et al. (2020)] In the current study, qFILM was used to assess pulmonary vaso-occlusion and detect NETs in the intact lung microcirculation of live mice following IV challenge with saline, oxy-hemoglobin (oxy-Hb), hemin, or lipo-polysaccharide with or without pretreatment with N-terminus active domain (GSDMD-NT) inhibitors LDC7559 [Sollberger G, Choidas A, Burn G L, et al. (2018)], NSA [Rathkey J K, Zhao J, Liu Z, et al. (2018)], Disulfiram [Hu J J, Liu X, Xia S, et al. (2020)], or the pan-caspase inhibitor Z-VAD-FMK [Sollberger G, Choidas A, Burn G L, et al. (2018)], haptoglobin [Belcher J D, Chen C, Nguyen J, et al. (2014)], or TLR4-inhibitor (TAK242) [Belcher J D, Chen C, Nguyen J, et al. (2014)]. qFILM was conducted with a Nikon multiphoton excitation fluorescence microscope and an APO LWD 25×water immersion objective with 1.1 NA. […]

SCD-Selp−/− mice = assay: cNETs in platelet-poor plasma by Imaging Flow Cytometry, SCD-Selp−/− mice; format: in vivo, mouse; details: IV 10 μmole/kg oxy-Hb with 10 mg/kg inhibitor vs oxy-Hb alone
Method: (FIG. 5A) Experimental scheme: SCD or SCD-Selp^−/− mice were IV administered 10 μmole/kg oxy-Hb (10 oxy-Hb) without or with 10 mg/kg GSDMD inhibitors LDC75591 or Disulfiram. In FIGS. 5C-5D, venous blood was processed to generate PPP and cNETs detected in PPP using Imaging Flow Cytometry. Imaging Flow Cytometry data was quantified to estimate concentration of cNETs (#cNETs/μl of plasma). In FIGS. 5B, and 5E-5F, quantitative fluorescence intravital lung microscopy (qFILM) was used to detect arrival of circulating NETs (cNETs) within the lung microcirculation. Number of cNETs entering per FOV over a 1-minute duration (#cNETs/FOV/min) were quantified. In FIGS. 5G-5J, qFILM was used to assess the absence or presence of pulmonary vaso-occlusion using the experimental strategy described in FIG. 1A. Pulmonary vaso-occlusions (PVOs) were compared between treatment groups using following two parameters: Number of PVOs per Field of View (#PVOs/FOV) and number of large PVOs (with area>1000 μm^2) per FOV. (FIG. 5B) #cNETs/FOV/min in SCD mice IV administered 10 oxy-Hb were not different from SCD-Selp^−/− mice IV administered 10 oxy-Hb. SCD IV Oxy-Hb (n=4 mice; 44 FOVs). SCD-Selp^−/− IV oxy-Hb (n=5 mice; 71 FOVs). (FIG. 5C) Plasma concentration of cNETs was not different between SCD and SCD-Selp^−/− mice (n=4 mice per group) IV administered 10 oxy-Hb. […]

[1] = IV 10 μmole/kg oxy-Hb with inhibitor vs oxy-Hb alone, NSA 20 mg/kg
[2] = IV 10 μmole/kg oxy-Hb with inhibitor, NSA 20 mg/kg

With `COc1ccccc1-c1cc2n(n1)Cc1ccc(NC(C)=O)cc1OC2` [LDC7559] the “Number of PVOs per Field of View (#PVOs/FOV)” value (SCD mice; [1]) was “significantly less; also recorded: significantly reduced”, the “number of large PVOs (with area>1000 μm^2) per FOV” value (SCD mice; [1]) was “significantly less; also recorded: significantly reduced” and the “blood flow in the lung (rapidly transiting erythrocytes)” value (SCD mice; [2]) was “significantly improved”. For the same molecule, the “lung vaso-occlusion in representative qFILM images” value (SCD mice; [2]) was “absence of lung vaso-occlusion; also recorded: lack of pulmonary vaso-occlusion”, the “large neutrophil-platelet aggregates occluding the arteriolar bottle-necks in the lung” value (SCD mice; IV 10 μmole/kg oxy-Hb with inhibitor, Necrosulfonamide 20 mg/kg) was “rare” and the “Plasma concentration of cNETs (#cNETs/μl of plasma)” value (SCD-Selp−/− mice) was “significantly less”.

From patent publication US20240358721A1, “GASDERMIN-D INHIBITORS AND USES THEREOF FOR TREATING PULMONARY VASO-OCCLUSION” (UNIVERSITY OF PITTSBURGH-OF THE COMMONWEALTH SYSTEM OF …, priority 2021, published 2024)
